# Measured values published in patent publication US6632981B1, “DNA sequences encoding polypeptides having beta-1,3-glucanase activity” (Novartis Finance Corporation, priority 1988, dated 2003).
# Legend:
# [1] = system: endogenous PR-1a gene; assay: Assay for chemical induction of the endogenous PR-1a gene (mRNA, primer extension); type: in vivo; conditions: tobacco plant materials, control procedure
# Method: 50 g of total RNA is lyophilized in a 500 l Eppendorf tube. The RNA is resuspended in 30 l of radiolabeled probe solution and heated to 70′ C. for 10 minutes. The tube is slowly cooled to 37° C. and allowed to incubate overnight. Without removing the tube from the 37° C. water bath, 2 l of 10×reverse-transcriptase buffer (500 mM Tris-HCl, pH 7.5, 400 mM KCl, 30 mM MgCl2), 1 l 5 mg/ml bovine serum albumin, 5 l 100 mM dithiothreitol, 5 l 10×dNTPs (10 mM of each dNTP in H2O), 3 l H 20, 2 l RNasin (80 units), and 2 l reverse transcriptase (400 units) are added and the reaction is incubated at 37° C. for 30 minutes. To stop the reaction, 5 l of 3 M sodium acetate, pH 5, and 150 l absolute ethanol are added. The tube is left at −20° C. for 30 minutes, the precipitate is collected by centrifugation, washed with 80% ethanol and allowed to air-dry. The precipitate is resuspended in 10-20 l of loading dye (90% formamide, 0.05% bromophenol blue, 0.05% xylene cyanol, 1 mM EDTA) and the extension products are separated on a 6% sequencing gel (Maniatis, T. et al., supra). Extension products are visualized by autoradiography.
# As a control procedure, tobacco plant materials induced as described in Examples 139-141 by salicylic acid, methyl benzo-1,2,3-thiadiazole-7-carboxylate and TMV are assayed for transcription of mRNA from the endogenous PR-1a gene by the methods described in Example 6.
# [2] = system: chimeric PR-1a/GUS gene; assay: Chemical induction of chimeric PR-1a/GUS gene in transgenic tobacco plants, β-glucuronidase assay of leaf extracts; type: in vivo, Nicotiana tabacum
# Method: A. Gene expression is induced in plants obtained according to previously described procedures by applying a fine spray of a solution of 0.1 to 50 mM salicylic acid which has been adjusted to a pH between 6.0 and 8.0 with NaOH, to the leaves using a plant mister.
# The plants are allowed to continue to grow for two days and are then harvested, frozen in liquid nitrogen and stored at −80° C. until they are assayed as described in Example 65 and/or Example 66.
# B. Alternatively, the following solutions are used for induction:
# (§1) (3) Methyl benzo-1,2,3-thiadiazole-7-carboxylate. The solution is made by resuspending a wettable powder containing the chemical in sterile water for several minutes at a concentration of 1 mg/ml. Insoluble solid is removed from the solution by filter sterilizing.
# Frozen leaf tissue is ground in a mortar with a pestle in the presence of liquid nitrogen to produce a fine powder. Leaf extracts are prepared by mixing a given weight (g) with an equal volume (ml) of GUS extraction buffer (50 mM sodium phosphate buffer pH 7.0, 0.1% Triton-X 100, 0.1% sarkosyl, 10 mM β-mercaptoethanol) as described by Jefferson, R. A. et al., Proc. Natl. Acad. Sci. USA 83: 8447-8451 (1986).
# The reactions are carried out in the wells of ELISA plates by mixing 5-25 l extract with 120-100 l GUS assay buffer (50 mM sodium phosphate buffer pH 7.0, 0.1% Triton X-100, 10 mM β-mercaptoethanol) containing 4-methyl umbelliferyl glucuronide (MU) at a final concentration of 2 mM in a total volume of 125 l. The plate is incubated at 37° C. for 1-5 hours and the reaction is stopped by the addition of 150 l 3 M Na2CO3. The concentration of fluorescent indicator released is determined by reading the plate on a Flow Labs Fluoroskan II ELISA plate reader.
# [3] = system: chimeric PR-1a/GUS gene; assay: GUS induction in transformed tobacco callus; type: cell-based, Nicotiana tabacum
# Method: Agrobacterium strains containing the appropriate vectors are used to transform callus forming from the leaf disks (Example 112). Callus forming on kanamycin-containing MSBN selection medium is maintained on a callus growth medium comprised of MS major, minor salts and Fe-EDTA (Gibco #500-1117; 4.3 g/l), MS vitamins, 100 mg/l myo-inositol, 20 g/l sucrose, 2 mg/l naphthaleneacetic acid and 0.3 mg/l kinetin.
# The callus can be used to regenerate transgenic plants by transferring callus pieces to MSBN medium and following methods described in Examples 111 and 112. The callus is also used to measure gene induction following application of inducing chemicals and to screen for gene inducing chemicals.
# A. Callus obtained according to previously described procedures is assayed for chemical induction by applying with a sterile paint brush or a plant mister a filter sterilized solution of 0.1 to 50 mM salicylic acid which has been adjusted to a pH between 6.0 and 8.0 by the addition of NaOH. […]
# as §1
# Frozen leaf tissue is ground in a mortar with a pestle in the presence of liquid nitrogen to produce a fine powder. […]
# The reactions are carried out in the wells of ELISA plates by mixing 5-25 l extract with 120-100 l GUS assay buffer (50 mM sodium phosphate buffer pH 7.0, 0.1% Triton X-100, 10 mM β-mercaptoethanol) containing 4-methyl umbelliferyl glucuronide (MU) at a final concentration of 2 mM in a total volume of 125 l. […] The concentration of fluorescent indicator released is determined by reading the plate on a Flow Labs Fluoroskan II ELISA plate reader. […]
# [4] = tobacco plant Alu 1 (CIB272), water 5.6, buffer 20.5
# [5] = tobacco plant Alu 2 (CIB272), water 2.0, buffer 8.9
# [6] = tobacco plant Alu 3 (CIB272), water 0.1, buffer 2.0
# [7] = tobacco plant Alu 4 (CIB272), water 2.1, buffer 6.1
# [8] = tobacco plant Alu 5 (CIB272), water 0.6, buffer 0.5
# [9] = tobacco plant Alu 6 (CIB272), water 0.8, buffer 3.1
# [10] = tobacco plant Alu 7 (CIB272), water 1.7, buffer 21.7
# [11] = tobacco plant Alu 8 (CIB272), water 0.6, buffer 0.6
# [12] = tobacco plant Alu 9 (CIB272), water 0.9, buffer 0.3
# [13] = tobacco plant Alu 10 (CIB272), water 4.0, buffer 8.1
# [14] = tobacco plant Alu 11 (CIB272), water 1.6, buffer 2.2
# [15] = tobacco plant Alu 12 (CIB272), water 0.7, buffer 2.3
# [16] = tobacco plant Alu 13 (CIB272), water 0.1, buffer 1.9
# [17] = tobacco plant H 1 (CIB271), water 5.39, buffer 20.1
# [18] = tobacco plant H 3 (CIB271), water 0.21, buffer 1.66
# [19] = tobacco plant H 4 (CIB271), water 8.39, buffer 2.28
# [20] = tobacco plant H 6 (CIB271), water 0.10, buffer 0.09
# [21] = tobacco plant H 9 (CIB271), water 0.23, buffer 0.5
# [22] = tobacco plant Hae 1 (CIB273), water 0.6, buffer 1.7
# [23] = tobacco plant Hae 2 (CIB273), water 2.3, buffer 0.4
# [24] = tobacco plant Hae 3 (CIB273), water 1.7, buffer 3.0
# [25] = tobacco plant Hae 4 (CIB273), water 2.0, buffer 1.7
# [26] = tobacco plant Hae 5 (CIB273), water 18.1, buffer 36.6
# [27] = tobacco plant Hae 8 (CIB273), water 0.4, buffer 0.6
# [28] = tobacco plant Hae 9 (CIB273), water 2.6, buffer 12.5
# [29] = tobacco plant Hae 10 (CIB273), water 1.6, buffer 13.5
# [30] = tobacco plant Hae 11 (CIB273), water 2.6, buffer 3.9
# [31] = tobacco plant Hae 12 (CIB273), water 0.2, buffer 0.6
# [32] = tobacco plant Hae 13 (CIB273), water 0.01, buffer nd
# [33] = tobacco plant Hae 14 (CIB273), water 0.1, buffer 0.1
# [34] = tobacco plant Hae 15 (CIB273), water 0.1, buffer 3.4
# [35] = tobacco plant Hae 16 (CIB273), water 0.1, buffer 0.8
SMILES,transcription of mRNA from the endogenous PR-1a gene [1],"Specific Activity nKat MU/mg protein [2, 4] [nKat MU/mg protein]","Specific Activity nKat MU/mg protein [2, 5] [nKat MU/mg protein]","Specific Activity nKat MU/mg protein [2, 6]","Specific Activity nKat MU/mg protein [2, 7] [nKat MU/mg protein]","Specific Activity nKat MU/mg protein [2, 8]","Specific Activity nKat MU/mg protein [2, 9] [nKat MU/mg protein]","Specific Activity nKat MU/mg protein [2, 10] [nKat MU/mg protein]","Specific Activity nKat MU/mg protein [2, 11] [nKat MU/mg protein]","Specific Activity nKat MU/mg protein [2, 12] [nKat MU/mg protein]","Specific Activity nKat MU/mg protein [2, 13] [nKat MU/mg protein]","Specific Activity nKat MU/mg protein [2, 14]","Specific Activity nKat MU/mg protein [2, 15] [nKat MU/mg protein]","Specific Activity nKat MU/mg protein [2, 16] [nKat MU/mg protein]","Specific Activity nKat MU/mg protein [2, 17] [nKat MU/mg protein]","Specific Activity nKat MU/mg protein [2, 18] [nKat MU/mg protein]","Specific Activity nKat MU/mg protein [2, 19] [nKat MU/mg protein]","Specific Activity nKat MU/mg protein [2, 20]","Specific Activity nKat MU/mg protein [2, 21] [nKat MU/mg protein]","Specific Activity nKat MU/mg protein [2, 22] [nKat MU/mg protein]",also measured
"COC(=O)c1cccc2nnsc12 [Methyl benzo-1,2,3-thiadiazole-7-carboxylate]",Elevated levels of mRNA,206.9,83.2,2.0 ± .9 nKat MU/mg protein,7.1 ± 2.6,1.2 ± .6 nKat MU/mg protein,67.0,29.1,0.4,0.4,52.0,2.8 ± 1.3 nKat MU/mg protein,73.4,13.2,13.5 ± 0.8,11.95 ± 0.85,18.52 ± 1.07,2.58 ± .01 nKat MU/mg protein,9.1,2.6,"Specific Activity nKat MU/mg protein [2, 23]: 11.8 nKat MU/mg protein; Specific Activity nKat MU/mg protein [2, 24]: 11.2 nKat MU/mg protein; Specific Activity nKat MU/mg protein [2, 25]: 10.8 nKat MU/mg protein; Specific Activity nKat MU/mg protein [2, 26]: 132.5 nKat MU/mg protein; Specific Activity nKat MU/mg protein [2, 27]: 28.9 nKat MU/mg protein; Specific Activity nKat MU/mg protein [2, 28]: 129.7 nKat MU/mg protein; Specific Activity nKat MU/mg protein [2, 29]: 98.2 nKat MU/mg protein; Specific Activity nKat MU/mg protein [2, 30]: 58.5 nKat MU/mg protein; Specific Activity nKat MU/mg protein [2, 31]: 5.8 nKat MU/mg protein; Specific Activity nKat MU/mg protein [2, 32]: 0.1 nKat MU/mg protein; Specific Activity nKat MU/mg protein [2, 33]: 8.6 nKat MU/mg protein; Specific Activity nKat MU/mg protein [2, 34]: 7.2 nKat MU/mg protein; Specific Activity nKat MU/mg protein [2, 35]: 4.3 nKat MU/mg protein; GUS activities ([3]; tobacco callus transformed with CIB271 (different experiment), 250 g/l spray, 21 hours, H2O spray 2.8): 13.7 nKat MU/mg protein; GUS activities ([3]; tobacco callus transformed with CIB273, 250 g/l spray, 21 hours, H2O spray 0.46): 31.2 nKat MU/mg protein"
"O=C(O)c1ccccc1O [Salicylic acid, salicylic acid]",Elevated levels of mRNA,20.0,6.6,2.8 ± .9 nKat MU/mg protein,43.0 ± 19,4.4 ± 2.3 nKat MU/mg protein,28.8,38.7,0.4,0.6,39.2,1.9 ± .9 nKat MU/mg protein,57.1 ± 22,19.1,13.9 ± 1.2,6.92 ± 0.88,27.5 ± 0.7,4.08 ± 0.58 nKat MU/mg protein,10.8,1.6,"Specific Activity nKat MU/mg protein [2, 23]: 8.8 nKat MU/mg protein; Specific Activity nKat MU/mg protein [2, 24]: 11.1 nKat MU/mg protein; Specific Activity nKat MU/mg protein [2, 25]: 8.1 nKat MU/mg protein; Specific Activity nKat MU/mg protein [2, 26]: 59.4 nKat MU/mg protein; Specific Activity nKat MU/mg protein [2, 27]: 30.6 nKat MU/mg protein; Specific Activity nKat MU/mg protein [2, 28]: 63.9 nKat MU/mg protein; Specific Activity nKat MU/mg protein [2, 29]: 70.5 nKat MU/mg protein; Specific Activity nKat MU/mg protein [2, 30]: 81.8 nKat MU/mg protein; Specific Activity nKat MU/mg protein [2, 31]: 2.5 nKat MU/mg protein; Specific Activity nKat MU/mg protein [2, 32]: 0.7 nKat MU/mg protein; Specific Activity nKat MU/mg protein [2, 33]: 1.8 nKat MU/mg protein; Specific Activity nKat MU/mg protein [2, 34]: 6.4 nKat MU/mg protein; Specific Activity nKat MU/mg protein [2, 35]: 2.3 nKat MU/mg protein; GUS activities ([3]; tobacco callus transformed with CIB271, 50 mM spray, harvested 21 hours after treatment, H2O spray 1.8): 3.8 nKat MU/mg protein"
